From PubChem BioAssay (NCI) come the findings set out here.

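Interpolation was linear, between the two tested concentrations surrounding the appropriate level; five concentrations were tested over 48 hours in 96-well plates. At the GI50, growth is halved. TGI: concentration producing complete growth inhibition.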

Some test systems named below: 786-0 renal; NCI-H226 lung; NCI-H23 lung; OVCAR-5 ovarian; SR leukemia; T-47D breast; TK-10 renal; MDA-MB-435.
Holding throughout (experiment): DTP human tumour cell line panel, 48 h

As to `COc1ccc(Cn2nc(-c3cc(OC)c(OC)c(OC)c3)c3c2CCc2cnoc2-3)cc1OC`, the GI50 in the assay on 786-0 renal was 6.34 µM; in the assay on NCI-H226 lung, 6.85 µM; in the assay on NCI-H23 lung it was 3430 nM; in the assay with OVCAR-5 ovarian it was 26.6 µM; with SR leukemia, 2670 nM; with T-47D breast it was 4.16 µM. Also, the GI50 in the assay with TK-10 renal is 10.1 µM. Further, the TGI in the assay with 786-0 renal is greater than 100 µM; with NCI-H226 lung it was 56.1 µM; with NCI-H23 lung it was 64 µM; in the assay on OVCAR-5 ovarian, greater than 100 µM; in the assay on SR leukemia, greater than 100 µM; in the assay with T-47D breast it was 39.9 µM. In the assay on TK-10 renal, this molecule came in with a TGI greater than 100 µM.

As to `Cc1ccc(C(=O)Nc2ccc(S(=O)(=O)O)c3cc(S(=O)(=O)O)cc(S(=O)(=O)O)c23)cc1NC(=O)c1cccc(N)c1`, the TGI in the assay on 786-0 renal, with NCI-H226 lung, in the assay on NCI-H23 lung, in the assay on OVCAR-5 ovarian, in the assay with SR leukemia and in the assay with T-47D breast was greater than 100 µM throughout. The same molecule registered a TGI in the assay on TK-10 renal greater than 100 µM.

In the case of `CC(C)(C(=O)NN)c1ccccc1`, the TGI in the assay on 786-0 renal, in the assay on MDA-MB-435, in the assay on NCI-H23 lung, in the assay on OVCAR-5 ovarian, in the assay with SR leukemia and with T-47D breast was greater than 100 µM throughout. Also, in the assay on TK-10 renal, the TGI was greater than 100 µM.

`CCN1C(=O)N(CC)C2C1NN=c1s/c(=C3\C(=O)N(C(C)C)c4ccccc43)c(=O)n12` (centres undefined): the GI50 is 0.852 µM in the assay with 786-0 renal; 192 nM in the assay on MDA-MB-435; 0.441 µM with NCI-H226 lung; 421 nM in the assay with NCI-H23 lung; 0.639 µM in the assay on OVCAR-5 ovarian; 426 nM with SR leukemia. Moreover, the GI50 in the assay on TK-10 renal was 1.33 µM. Moreover, the TGI with 786-0 renal was 17.7 µM; in the assay with MDA-MB-435 it was 0.487 µM; with NCI-H226 lung it was 23.2 µM; in the assay with NCI-H23 lung it was 30.5 µM; in the assay with OVCAR-5 ovarian it was greater than 100 µM; with SR leukemia it was greater than 100 µM. The molecule further yielded a TGI with TK-10 renal greater than 69.4 µM.

`CC12CCC(=O)C(O1)C1C(=O)c3cc4ccccc4cc3C(=O)C12` (centres undefined): the GI50 was 16.3 µM in the assay with 786-0 renal; 17700 nM in the assay on MDA-MB-435; 14.4 µM in the assay on NCI-H226 lung; 15800 nM with NCI-H23 lung; 29.3 µM in the assay on OVCAR-5 ovarian; 14.9 µM in the assay on T-47D breast. Also, the GI50 in the assay with TK-10 renal is 16.6 µM. Further, the TGI in the assay on 786-0 renal came out at 30 µM; in the assay with MDA-MB-435 it was 34 µM; in the assay with NCI-H226 lung, 41.9 µM; with NCI-H23 lung it was 31.6 µM; in the assay with OVCAR-5 ovarian it was 69.6 µM; in the assay with T-47D breast, 39.4 µM. This molecule also came in with a TGI in the assay on TK-10 renal of 33.6 µM.

Consider `CSc1nnc(CCSc2ccnc3c(C(F)(F)F)cccc23)o1`, for which the GI50 in the assay on 786-0 renal was 95.3 µM; in the assay with MDA-MB-435, greater than 100000 nM; with NCI-H226 lung, greater than 100 µM; in the assay with NCI-H23 lung it was greater than 100000 nM; in the assay on OVCAR-5 ovarian, greater than 100 µM; in the assay with T-47D breast, 24.9 µM. For the same molecule, in the assay on TK-10 renal, the GI50 is 70.1 µM. Further, the TGI with 786-0 renal, with MDA-MB-435, with NCI-H226 lung, in the assay with NCI-H23 lung, with OVCAR-5 ovarian and with T-47D breast was greater than 100 µM each time. Moreover, the TGI with TK-10 renal is greater than 100 µM.

On to `COc1cc(Cn2cc3c(c2)-c2oncc2CC3)cc(OC)c1OC`, for which the GI50 is 0.109 µM in the assay with 786-0 renal; less than 10.7 nM in the assay on MDA-MB-435; 0.256 µM in the assay on NCI-H226 lung; 48 nM with NCI-H23 lung; 0.0735 µM in the assay with OVCAR-5 ovarian; 28.6 nM in the assay with SR leukemia. For the same molecule, the GI50 in the assay on TK-10 renal was 5.77 µM. In addition, the TGI with 786-0 renal was greater than 64.6 µM; with MDA-MB-435, less than 0.0225 µM; in the assay with NCI-H226 lung, greater than 100 µM; with NCI-H23 lung it was greater than 69.7 µM; with OVCAR-5 ovarian it was greater than 100 µM; in the assay with SR leukemia, greater than 100 µM. This molecule also registered a TGI with TK-10 renal greater than 100 µM.

Consider `CCc1c(C)[nH]c(/C=C2\N=C(c3ccc[nH]3)C=C2OC)c1C`, for which the GI50 with 786-0 renal is 0.177 µM; in the assay on MDA-MB-435, 73.3 nM; in the assay on NCI-H226 lung, 0.812 µM; in the assay on NCI-H23 lung, 1100 nM; in the assay on OVCAR-5 ovarian, 0.413 µM; in the assay with T-47D breast it was 0.545 µM. In addition, the concentration for 50% growth inhibition (GI50) in the assay with TK-10 renal is 0.276 µM. In addition, the TGI with 786-0 renal was 0.675 µM; in the assay on MDA-MB-435, 1.42 µM; in the assay on NCI-H226 lung, 8.83 µM; in the assay on NCI-H23 lung, 11.3 µM; with OVCAR-5 ovarian, 7.3 µM; with T-47D breast, 3.22 µM. For the same molecule, the TGI with TK-10 renal was found to be 8.85 µM.

Regarding `COc1cc2nc(Cl)nc(Nc3cccc(C(=O)/C=C/c4ccccc4)c3)c2cc1OC`, the GI50 in the assay with 786-0 renal was 3.05 µM; in the assay on MDA-MB-435, 3400 nM; in the assay with NCI-H226 lung, 5.81 µM; in the assay with NCI-H23 lung, 6630 nM; in the assay on OVCAR-5 ovarian it was 8.79 µM; in the assay with T-47D breast, greater than 30.3 µM. Besides, in the assay on TK-10 renal, the GI50 is 4.19 µM. Further, the TGI was 15 µM in the assay with 786-0 renal; 28.9 µM in the assay with MDA-MB-435; greater than 100 µM in the assay on NCI-H226 lung; greater than 100 µM in the assay with NCI-H23 lung; greater than 100 µM with OVCAR-5 ovarian; greater than 100 µM in the assay with T-47D breast. Besides, the TGI with TK-10 renal was found to be 20 µM.

In the case of `Cc1ccc2[nH]c(C(=O)NN3C(=O)CSC34CCCCC4C)c(-c3ccccc3)c2c1` (centres undefined), the GI50 is 17.3 µM in the assay with 786-0 renal; 17900 nM with MDA-MB-435; 17.5 µM in the assay on NCI-H226 lung; 17000 nM in the assay on NCI-H23 lung; 19.7 µM in the assay on OVCAR-5 ovarian; 16.3 µM in the assay with T-47D breast. For the same molecule, the GI50 with TK-10 renal is 17.5 µM. For the same molecule, the TGI in the assay on 786-0 renal is 37.9 µM; with MDA-MB-435, 34.7 µM; with NCI-H226 lung it was 34.2 µM; in the assay with NCI-H23 lung, 33.2 µM; in the assay with OVCAR-5 ovarian it was 36.1 µM; in the assay on T-47D breast it was 40 µM. For the same molecule, in the assay on TK-10 renal, the concentration for total growth inhibition (TGI) is 33.8 µM.

Take `N#CC(C#N)=Cc1ccc(-c2ccc(-c3nc4ccccc4s3)cc2)o1`: the GI50 in the assay on 786-0 renal was 3.15 µM; in the assay on MDA-MB-435 it was 25400 nM; in the assay with NCI-H226 lung, 14.2 µM; in the assay with NCI-H23 lung, 15600 nM; in the assay on OVCAR-5 ovarian, 11.9 µM; with T-47D breast, 4.46 µM. Moreover, in the assay on TK-10 renal, the GI50 was 17.2 µM. Also, the TGI in the assay with 786-0 renal was 16 µM; with MDA-MB-435, 81.8 µM; with NCI-H226 lung it was 39.2 µM; in the assay on NCI-H23 lung, 43.3 µM; in the assay on OVCAR-5 ovarian it was 24.2 µM; in the assay with T-47D breast, 38.2 µM. Also, in the assay on TK-10 renal, the concentration for total growth inhibition (TGI) was found to be 36.9 µM.

In the case of `CC1(C)CCC2(C(=O)OC3OC(CO)C(O)C(O)C3O)CC[C@]3(C)C(=CCC4C5(C)CC[C@H](OC6OC(C(=O)O)C(O)C(O)C6O)C(C)(C)C5CCC43C)C2C1` (some centres undefined), the GI50 was 1.56 µM in the assay on 786-0 renal; 2520 nM in the assay with MDA-MB-435; 1.49 µM in the assay with NCI-H226 lung; 1480 nM with NCI-H23 lung; 3.07 µM in the assay with OVCAR-5 ovarian; 1.75 µM in the assay with T-47D breast. In addition, the GI50 in the assay on TK-10 renal is 1.85 µM. In addition, the TGI in the assay with 786-0 renal was 6.19 µM; with MDA-MB-435, greater than 50 µM; in the assay with NCI-H226 lung, 6.31 µM; in the assay with NCI-H23 lung, 3.73 µM; with OVCAR-5 ovarian, 9.41 µM; in the assay with T-47D breast it was 5.98 µM. The same molecule had a TGI in the assay with TK-10 renal of 10.3 µM.

For the molecule `COc1cc2cc(Oc3ccc(NC(=O)Nc4ccc(Cl)c(C(F)(F)F)c4)cc3)c(C)nc2cc1OCCN1CCCCC1`, the GI50 with 786-0 renal was 1.64 µM; in the assay on MDA-MB-435, 1560 nM; in the assay on NCI-H23 lung, 1690 nM; with OVCAR-5 ovarian it was 1.92 µM; in the assay on SR leukemia, 486 nM; in the assay with TK-10 renal, 1.79 µM. Moreover, the TGI was 3.17 µM in the assay with 786-0 renal; 2.92 µM with MDA-MB-435; 3.28 µM with NCI-H23 lung; 3.38 µM with OVCAR-5 ovarian; 2.37 µM with SR leukemia; 3.38 µM with TK-10 renal.

As for `CN(C)c1ccc2nc3ccc(=[N+](C)C)cc-3oc2c1`, the GI50 in the assay with 786-0 renal is 16.5 µM; in the assay on MDA-MB-435, 2730 nM; in the assay with NCI-H226 lung, 2.1 µM; with NCI-H23 lung, 788 nM; in the assay on SR leukemia, 2060 nM; in the assay with T-47D breast, 0.582 µM. The GI50 in the assay with TK-10 renal is 17.2 µM. Besides, the TGI was found to be 90.9 µM with 786-0 renal; 15.8 µM in the assay on MDA-MB-435; 6.76 µM with NCI-H226 lung; 5.6 µM in the assay with NCI-H23 lung; 23.8 µM in the assay with SR leukemia; 6.59 µM with T-47D breast. This molecule also registered a TGI in the assay on TK-10 renal of 57.2 µM.

For the molecule `CCN=C1C=CC(=C(c2ccc(N(C)C)cc2)c2ccc(N(C)C)cc2)c2ccccc21`, the GI50 in the assay with 786-0 renal was 0.0866 µM; with MDA-MB-435, 70.5 nM; in the assay on NCI-H23 lung, 30 nM; in the assay with OVCAR-5 ovarian, 0.215 µM; in the assay on SR leukemia, 84.6 nM; with T-47D breast it was 0.0567 µM. Also, the GI50 in the assay on TK-10 renal is 0.0913 µM. In addition, the TGI with 786-0 renal came to 0.37 µM; in the assay with MDA-MB-435, 0.408 µM; with NCI-H23 lung, 0.211 µM; in the assay with OVCAR-5 ovarian, 1.19 µM; in the assay with SR leukemia, 0.572 µM; in the assay on T-47D breast, 1.52 µM. Further, in the assay with TK-10 renal, the TGI came out at 1.31 µM.
